pIC50: −log10 of the molar value. Numbered stars: 1 amine (or outer) side, 2 acyl side, 3 side chain; on linkers, the order of the positions; unused ones are H or OH. Bridge positions count the residues as written; N and C are the ends. Square brackets hold non-standard residues; d marks the D form. Peptide text beside a SMILES is read from it. * marks the point of attachment. Tartaroyl(2R,3R-(OAc)2) = CC(=O)O[C@@H](C(=O)[*:1])[C@@H](OC(C)=O)C(=O)[*:2]; Phe(4-(2-MeO-Ph)) = COc1ccccc1-c1ccc(C[C@H](N)C(=O)O)cc1; dAla(benzothien-2-yl) = N[C@H](Cc1cc2ccccc2s1)C(=O)O; Phe(4-CF3) = N[C@@H](Cc1ccc(C(F)(F)F)cc1)C(=O)O; dPhe(3-CF3) = N[C@H](Cc1cccc(C(F)(F)F)c1)C(=O)O; dPhe(2-CF3) = N[C@H](Cc1ccccc1C(F)(F)F)C(=O)O; dPhe(3,4-F2) = N[C@H](Cc1ccc(F)c(F)c1)C(=O)O; dPhe(3-OMe) = COc1cccc(C[C@@H](N)C(=O)O)c1; Bip = N[C@@H](Cc1ccc(-c2ccccc2)cc1)C(=O)O; dPhe(4-NH2) = Nc1ccc(C[C@@H](N)C(=O)O)cc1; Phe(4-Br) = N[C@@H](Cc1ccc(Br)cc1)C(=O)O; Phe(4-NH2) = Nc1ccc(C[C@H](N)C(=O)O)cc1; dAla(2-furyl) = N[C@H](Cc1ccco1)C(=O)O; dPhe(4-F) = N[C@H](Cc1ccc(F)cc1)C(=O)O; d1Nal = N[C@H](Cc1cccc2ccccc12)C(=O)O; d2Nal = N[C@H](Cc1ccc2ccccc2c1)C(=O)O; d(hhPhe) = N[C@H](CCCc1ccccc1)C(=O)O; dIgl = N[C@@H](C(=O)O)C1Cc2ccccc2C1; d(hPhe) = N[C@H](CCc1ccccc1)C(=O)O; d2Thi = N[C@H](Cc1cccs1)C(=O)O; Suc = O=C(CCC(=O)[*:2])[*:1]; Bn = c1ccc(C*)cc1
Target: T1, TNFα / TNFα receptor (TNFα R1/Fc) (Homo sapiens, UniProt P01375)
T1 construct: purchased R&D Systems
T1 sequence (P01375 77-233 limits assumed, species assumed): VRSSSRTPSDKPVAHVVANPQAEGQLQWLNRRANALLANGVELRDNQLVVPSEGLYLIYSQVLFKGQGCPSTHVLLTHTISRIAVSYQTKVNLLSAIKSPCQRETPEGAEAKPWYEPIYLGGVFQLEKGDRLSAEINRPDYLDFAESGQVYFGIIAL
Assay: Inhibition of binding of TNFα to the TNFα receptor (plate ELISA competition)
Conditions: Table 2; read-out: Activity (IC50, inhibition of TNFα binding to TNFα R1/Fc)
Summary of the method: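 Plates were coated with TNFα at 15 nM. Test compound and 8.33 nM receptor-Fc (PBST, 2% DMSO) were first mixed in solution for 30 min at room temperature, then transferred to the plates for another 30 min. Competition was read by absorbance at 450 nm after HRP anti-human IgG Fc detection with TMB.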

Row | Structure (SMILES) | pIC50
1 | O=C1CCC(=O)N[C@H](Cc2ccc(F)cc2)C(=O)N[C@@H](Cc2ccc(C(F)(F)F)cc2)C(=O)N[C@H](Cc2ccccc2)C(=O)N[C@H](C(=O)O)Cc2ccc(cc2)N1 [Compound 134] ([dPhe(4-F)][Phe(4-CF3)][dF][Phe(4-NH2)]-OH; linker N-4 via Suc) | < 4.00
2 | COc1cccc(C[C@H]2NC(=O)CCC(=O)Nc3ccc(cc3)C[C@@H](C(=O)O)NC(=O)[C@@H](Cc3ccccc3)NC(=O)[C@H](Cc3ccc(C(F)(F)F)cc3)NC2=O)c1 [Compound 138] ([dPhe(3-OMe)][Phe(4-CF3)][dF][Phe(4-NH2)]-OH; linker N-4 via Suc) | < 4.00
3 | N=C(N)NCCC[C@H]1NC(=O)CCC(=O)Nc2ccc(cc2)C[C@@H](C(=O)O)NC(=O)[C@@H](Cc2ccccc2)NC(=O)[C@H](Cc2ccc(C(F)(F)F)cc2)NC1=O [Compound 141] ([dR][Phe(4-CF3)][dF][Phe(4-NH2)]-OH; linker N-4 via Suc) | < 4.00
4 | O=C1CCC(=O)N[C@H](Cc2ccc3ccccc3c2)C(=O)N[C@@H](Cc2ccc(C(F)(F)F)cc2)C(=O)N[C@H](Cc2ccccc2)C(=O)N[C@H](C(=O)O)Cc2ccc(cc2)N1 [Compound 143] ([d2Nal][Phe(4-CF3)][dF][Phe(4-NH2)]-OH; linker N-4 via Suc) | < 4.00
5 | O=C1CCC(=O)N[C@H](Cc2ccccc2)C(=O)N[C@@H](Cc2ccc(Br)cc2)C(=O)N[C@H](Cc2ccco2)C(=O)N[C@@H](C(=O)O)Cc2ccc(cc2)N1 [Compound 153] ([dF][Phe(4-Br)][dAla(2-furyl)][dPhe(4-NH2)]-OH; linker N-4 via Suc) | < 4.00
6 | CC(=O)O[C@H]1C(=O)Nc2ccc(cc2)C[C@H](C(=O)O)NC(=O)[C@@H](Cc2ccco2)NC(=O)[C@H](Cc2ccc(Br)cc2)NC(=O)[C@@H](Cc2cccs2)NC(=O)[C@@H]1OC(C)=O [Compound 154] ([d2Thi][Phe(4-Br)][dAla(2-furyl)][dPhe(4-NH2)]-OH; linker N-4 via Tartaroyl(2R,3R-(OAc)2)) | < 4.00
7 | O=C1N[C@H](Cc2ccco2)C(=O)N[C@@H](C(=O)O)Cc2ccc(cc2)NC(=O)[C@H](O)[C@@H](O)C(=O)N[C@H](Cc2cccs2)C(=O)N[C@H]1Cc1ccc(Br)cc1 [Compound 155] | < 4.00
8 | O=C1N[C@H](Cc2ccco2)C(=O)N[C@@H](C(=O)O)Cc2ccc(cc2)NC(=O)[C@H](O)[C@@H](O)C(=O)N[C@H](Cc2ccccc2)C(=O)N[C@H]1Cc1ccc(Br)cc1 [Compound 161] | < 4.00
9 | COc1ccc(C[C@H]2NC(=O)CCC(=O)Nc3ccc(cc3)C[C@@H](C(=O)O)NC(=O)[C@@H](Cc3ccccc3)NC(=O)[C@H](Cc3ccc(C(F)(F)F)cc3)NC2=O)cc1 [Compound 162] ([dY](Me)[Phe(4-CF3)][dF][Phe(4-NH2)]-OH; linker N-4 via Suc) | < 4.00
10 | O=C1CCC(=O)N[C@H](Cc2cc3ccccc3s2)C(=O)N[C@@H](Cc2ccc(C(F)(F)F)cc2)C(=O)N[C@H](Cc2ccccc2)C(=O)N[C@H](C(=O)O)Cc2ccc(cc2)N1 [Compound 164] ([dAla(benzothien-2-yl)][Phe(4-CF3)][dF][Phe(4-NH2)]-OH; linker N-4 via Suc) | 4.00 to 4.52
11 | O=C1CCC(=O)N[C@H](C2Cc3ccccc3C2)C(=O)N[C@@H](Cc2ccc(C(F)(F)F)cc2)C(=O)N[C@H](Cc2ccccc2)C(=O)N[C@H](C(=O)O)Cc2ccc(cc2)N1 [Compound 165] ([dIgl][Phe(4-CF3)][dF][Phe(4-NH2)]-OH; linker N-4 via Suc) | < 4.00
12 | O=C1CCC(=O)N[C@H](Cc2cccc(C(F)(F)F)c2)C(=O)N[C@@H](Cc2ccc(C(F)(F)F)cc2)C(=O)N[C@H](Cc2ccccc2)C(=O)N[C@H](C(=O)O)Cc2ccc(cc2)N1 [Compound 166] ([dPhe(3-CF3)][Phe(4-CF3)][dF][Phe(4-NH2)]-OH; linker N-4 via Suc) | 4.00 to 4.52
13 | COc1ccccc1-c1ccc(C[C@@H]2NC(=O)[C@@H](CCc3ccccc3)NC(=O)CCC(=O)Nc3ccc(cc3)C[C@@H](C(=O)O)NC(=O)[C@@H](Cc3ccccc3)NC2=O)cc1 [Compound 167] ([d(hPhe)][Phe(4-(2-MeO-Ph))][dF][Phe(4-NH2)]-OH; linker N-4 via Suc) | < 4.00
14 | COc1ccc(-c2ccc(C[C@@H]3NC(=O)[C@@H](CCc4ccccc4)NC(=O)CCC(=O)Nc4ccc(cc4)C[C@@H](C(=O)O)NC(=O)[C@@H](Cc4ccccc4)NC3=O)cc2)cc1 [Compound 168] | 4.00 to 4.52
15 | O=C1CCC(=O)N[C@H](CCc2ccccc2)C(=O)N[C@@H](Cc2ccc(-c3cccc(O)c3)cc2)C(=O)N[C@H](Cc2ccccc2)C(=O)N[C@H](C(=O)O)Cc2ccc(cc2)N1 [Compound 169] | < 4.00
16 | O=C1CCC(=O)N[C@H](CCc2ccccc2)C(=O)N[C@@H](Cc2ccc(-c3ccccc3Cl)cc2)C(=O)N[C@H](Cc2ccccc2)C(=O)N[C@H](C(=O)O)Cc2ccc(cc2)N1 [Compound 170] | 4.00 to 4.52
17 | O=C1CCC(=O)N[C@H](CCc2ccccc2)C(=O)N[C@@H](Cc2ccc(-c3cccc(Cl)c3)cc2)C(=O)N[C@H](Cc2ccccc2)C(=O)N[C@H](C(=O)O)Cc2ccc(cc2)N1 [Compound 171] | < 4.00

Other lines, results leading:

Row | pIC50 | Structure (SMILES)
18 | 4.00 to 4.52 | O=C1CCC(=O)N[C@H](Cc2ccc(F)c(F)c2)C(=O)N[C@@H](Cc2ccc(C(F)(F)F)cc2)C(=O)N[C@H](Cc2ccccc2)C(=O)N[C@H](C(=O)O)Cc2ccc(cc2)N1 [Compound 135] ([dPhe(3,4-F2)][Phe(4-CF3)][dF][Phe(4-NH2)]-OH; linker N-4 via Suc)
19 | 4.00 to 4.52 | O=C1CCC(=O)N[C@H](CCCc2ccccc2)C(=O)N[C@@H](Cc2ccc(C(F)(F)F)cc2)C(=O)N[C@H](Cc2ccccc2)C(=O)N[C@H](C(=O)O)Cc2ccc(cc2)N1 [Compound 136] ([d(hhPhe)][Phe(4-CF3)][dF][Phe(4-NH2)]-OH; linker N-4 via Suc)
20 | 4.00 to 4.52 | O=C1CCC(=O)N[C@H](COCc2ccccc2)C(=O)N[C@@H](Cc2ccc(C(F)(F)F)cc2)C(=O)N[C@H](Cc2ccccc2)C(=O)N[C@H](C(=O)O)Cc2ccc(cc2)N1 [Compound 137] ([dS](Bn)[Phe(4-CF3)][dF][Phe(4-NH2)]-OH; linker N-4 via Suc)
21 | 4.00 to 4.52 | O=C1CCC(=O)N[C@H](Cc2cccc3ccccc23)C(=O)N[C@@H](Cc2ccc(C(F)(F)F)cc2)C(=O)N[C@H](Cc2ccccc2)C(=O)N[C@H](C(=O)O)Cc2ccc(cc2)N1 [Compound 142] ([d1Nal][Phe(4-CF3)][dF][Phe(4-NH2)]-OH; linker N-4 via Suc)
22 | 4.52 to 5.00 | O=C1COc2ccc(cc2)C[C@@H](C(=O)O)NC(=O)[C@@H](CCc2ccccc2)NC(=O)[C@H](Cc2ccc(-c3ccccc3)cc2)NC(=O)[C@@H](CCc2ccccc2)N1 [Compound 144]
23 | 4.52 to 5.00 | O=C1COc2ccc(cc2)C[C@@H](C(=O)O)NC(=O)[C@@H](CCc2ccccc2)NC(=O)[C@H](Cc2ccc(-c3ccccc3)cc2)NC(=O)[C@@H](Cc2cccs2)N1 [Compound 145]
24 | 4.52 to 5.00 | O=C1COc2ccc(cc2)C[C@@H](C(=O)O)NC(=O)[C@@H](CCc2ccccc2)NC(=O)[C@H](Cc2ccc(C(F)(F)F)cc2)NC(=O)[C@@H](Cc2ccc(C(F)(F)F)cc2)N1 [Compound 146]
25 | 4.00 to 4.52 | O=C1COc2ccc(cc2)C[C@@H](C(=O)O)NC(=O)[C@@H](CCc2ccccc2)NC(=O)[C@H](Cc2ccc(Cl)cc2Cl)NC(=O)[C@@H](Cc2cccs2)N1 [Compound 147]
26 | 4.00 to 4.52 | O=C1COc2ccc(cc2)C[C@@H](C(=O)O)NC(=O)[C@@H](CCc2ccccc2)NC(=O)[C@H](Cc2ccc(Cl)cc2Cl)NC(=O)[C@@H](Cc2ccc(C(F)(F)F)cc2)N1 [Compound 148]
27 | 4.52 to 5.00 | O=C1COc2ccc(cc2)C[C@@H](C(=O)O)NC(=O)[C@@H](CCc2ccccc2)NC(=O)[C@H](Cc2ccc(Cl)cc2Cl)NC(=O)[C@@H](CCc2ccccc2)N1 [Compound 149]
28 | 4.00 to 4.52 | O=C1COc2ccc(cc2)C[C@@H](C(=O)O)NC(=O)[C@@H](CCc2ccccc2)NC(=O)[C@H](Cc2ccc(-c3ccccc3)cc2)NC(=O)[C@@H](Cc2ccc(C(F)(F)F)cc2)N1 [Compound 150]
29 | 4.00 to 4.52 | O=C1COc2ccc(cc2)C[C@@H](C(=O)O)NC(=O)[C@@H](CCc2ccccc2)NC(=O)[C@H](Cc2ccc(C(F)(F)F)cc2)NC(=O)[C@@H](CCc2ccccc2)N1 [Compound 151]
30 | 4.52 to 5.00 | O=C1CCC(=O)N[C@H](Cc2cccs2)C(=O)N[C@@H](Cc2ccc(Br)cc2)C(=O)N[C@H](Cc2ccco2)C(=O)N[C@@H](C(=O)O)Cc2ccc(cc2)N1 [Compound 159] ([d2Thi][Phe(4-Br)][dAla(2-furyl)][dPhe(4-NH2)]-OH; linker N-4 via Suc)
31 | 4.00 to 4.52 | CC(=O)O[C@H]1C(=O)Nc2ccc(cc2)C[C@H](C(=O)O)NC(=O)[C@@H](Cc2ccco2)NC(=O)[C@H](Cc2ccc(Br)cc2)NC(=O)[C@@H](Cc2ccccc2)NC(=O)[C@@H]1OC(C)=O [Compound 160] ([dF][Phe(4-Br)][dAla(2-furyl)][dPhe(4-NH2)]-OH; linker N-4 via Tartaroyl(2R,3R-(OAc)2))
32 | 4.00 to 4.52 | O=C1CCC(=O)N[C@H](Cc2ccccc2C(F)(F)F)C(=O)N[C@@H](Cc2ccc(C(F)(F)F)cc2)C(=O)N[C@H](Cc2ccccc2)C(=O)N[C@H](C(=O)O)Cc2ccc(cc2)N1 [Compound 163] ([dPhe(2-CF3)][Phe(4-CF3)][dF][Phe(4-NH2)]-OH; linker N-4 via Suc)
33 | > 5.00 | O=C1CCC(=O)N[C@H](CCc2ccccc2)C(=O)N[C@@H](Cc2ccc(-c3ccccc3)cc2)C(=O)N[C@H](Cc2ccccc2)C(=O)N[C@@H](C(=O)O)Cc2ccc(cc2)N1 [Compound 172] ([d(hPhe)][Bip][dF][dPhe(4-NH2)]-OH; linker N-4 via Suc)
34 | 4.52 to 5.00 | O=C1CCC(=O)N[C@H](CCc2ccccc2)C(=O)N[C@@H](Cc2ccc(OCc3ccccc3)cc2)C(=O)N[C@H](Cc2ccccc2)C(=O)N[C@@H](C(=O)O)Cc2ccc(cc2)N1 [Compound 173] ([d(hPhe)]Y(Bn)[dF][dPhe(4-NH2)]-OH; linker N-4 via Suc)
35 | > 5.00 | O=C(O)CCNC(=O)[C@@H]1Cc2ccc(cc2)NC(=O)[C@H](O)[C@@H](O)C(=O)N[C@H](Cc2cccs2)C(=O)N[C@@H](Cc2ccc(-c3ccccc3)cc2)C(=O)N[C@H](Cc2ccccc2)C(=O)N1 [Compound 175]

Reference: patent US8338565B2, “Macrocyclic compounds for inhibition of tumor necrosis factor alpha” (Ensemble Therapeutics Corporation, priority 2008, dated 2012)
